Data as given in patent US20240210412A1, “SULFONYL-TRIAZOLE COMPOUNDS USEFUL AS LIGANDS AND INHIBITORS OF PROSTAGLANDIN REDUCTASE 2” (University of Virginia Patent Foundation, priority 2021, published 2024).
“Also recorded” adds a separate entry of the source.

Columns and labels:
[1] = target: T1, P16930 (fumarylacetoacetase, FAH) (Homo sapiens, UniProt P16930); assay: SILAC LC-MS ABPP; type: cell-based
T1 construct: endogenous in cells; host or cells: DM93 (SILAC)
Method: Cells were grown to 90-95% confluence before being washed once with warm, sterile DPBS (1×, 5 mL), followed by addition of 10 mL of serum-free media (supplemented with 1% L-glutamine) containing either DMSO or SuTEx fragment (in DMSO) was added. Light cells were treated with DMSO vehicle while the heavy cells were treated with DMSO or SuTEx fragment (in DMSO) and incubated for 2 hrs. After 2 hrs, the cells were treated with SuTEx alkyne probe (HHS475, 10 μL of 1000× DMSO stock) and incubated for an additional 2 hrs. The media was aspirated and cells washed with cold PBS (5 mL) and harvested. Cells were spun at 500×g for 5 min at 4° C. followed by removal of supernatant. […]
Coupling cell-based screens with chemical proteomics can facilitate the identification of target protein and binding sites that engage and are irreversibly modified by covalent ligands^[12]. In these assays, covalent ligands block SuTEx activity-based probe (ABP) labeling at protein sites, and the competition of probe labeling can be used to quantify potency and selectivity across the proteome^[10a]. To facilitate quantitative chemical proteomics, DM93 melanoma cells were cultured using stable isotopic labeling by amino acids in cell culture (SILAC)^[13]. […] Probe-modified peptides were resolved, identified, and quantified by high-resolution liquid chromatography-tandem mass spectrometry (LC-MS/MS). […]

PTGR2 = target: T2, PTGR2 (Homo sapiens, UniProt Q8N8N7); assay: gel-based ABPP, HHS-475 probe, HEK293T cells expressing recombinant PTGR2; type: cell-based; conditions: live HEK293T cells, ligand 25 μM or varying, 2 h; HHS-475 100 μM
T2 construct: host or cells: HEK293T
Method: HEK293T cells at 30-50% confluency were transfected with 2.6 μg of FAH or PTGR2 plasmid DNA in a serum-free media/polyethyleneimine solution for 48 hrs. The cells were washed once with warm, sterile DPBS (1×, 5 mL), and then 10 mL of serum-free media (supplemented with 1% L-glutamine) containing either DMSO or SuTEx fragment (in DMSO) was added. After 2 hrs, the cells were treated with 100 μM of SuTEx alkyne probe (HHS-475, 10 μL of 1000× DMSO stock) and incubated for an additional 2 hrs. The media was aspirated and cells washed with cold PBS (5 mL) and harvested. Cells were spun at 500×g for 5 min at 4° C. and supernatant was removed. Pellets were resuspended in 1 mL of cold DPB S and spun at 1,400×g for 3 min at 4° C. and supernatant was removed. The cells were lysed in PBS by sonication and fractionated (100,000×g, 45 min, 4° C.). The soluble fraction was diluted to 1 mg/mL in PBS and 49 μL was used for analysis. […] The samples were analyzed by SDS-PAGE (30 μL) and imaged by in-gel fluorescence scanning.
Confirmatory studies were also performed on prostaglandin reductase 2 (PTGR2) because of its role in the reduction of the bioactive lipid, 15-keto-PGE2^[17]. […] The remaining fluorescent signal detected on PTGR2 Y100F mutant protein is likely due to probe labeling of additional tyrosine sites identified on wild-type protein.
To assess the PTGR2 inhibitory activity of AMC-0702 and AMC-0703, HEK293T cells expressing PTGR2 were pretreated with vehicle, HHS-0101 (25 μM), HHS-0701 (25 μM), AMC-0702 (25 μM-0.1 μM), or AMC-0703 (25 μM-0.1 μM) for 2 hours followed by HHS-475 probe labelling in live cells (25 μM, 2 hours). Cells were lysed and probe-modified PTGR2 in proteomes detected by copper-catalyzed azide-alkyne cycloaddition conjugation of rhodamine-azide, SDS-PAGE, and in-gel fluorescence scanning. Inhibitory activity of compounds is determined by reductions in fluorescent band intensity from HHS-475 probe labeling of proteins detected in proteomes. […]

T2 sequence (Q8N8N7 whole entry): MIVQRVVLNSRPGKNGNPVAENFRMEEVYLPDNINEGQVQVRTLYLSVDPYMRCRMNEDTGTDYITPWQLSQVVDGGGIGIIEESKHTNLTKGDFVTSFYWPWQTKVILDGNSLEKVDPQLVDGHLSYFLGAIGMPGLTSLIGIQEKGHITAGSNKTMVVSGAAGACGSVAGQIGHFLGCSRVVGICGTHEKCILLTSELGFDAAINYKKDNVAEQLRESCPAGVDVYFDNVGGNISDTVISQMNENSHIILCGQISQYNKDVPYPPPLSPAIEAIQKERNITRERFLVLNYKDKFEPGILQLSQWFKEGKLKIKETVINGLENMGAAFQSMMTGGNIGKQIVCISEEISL
T1 sequence (P16930 whole entry): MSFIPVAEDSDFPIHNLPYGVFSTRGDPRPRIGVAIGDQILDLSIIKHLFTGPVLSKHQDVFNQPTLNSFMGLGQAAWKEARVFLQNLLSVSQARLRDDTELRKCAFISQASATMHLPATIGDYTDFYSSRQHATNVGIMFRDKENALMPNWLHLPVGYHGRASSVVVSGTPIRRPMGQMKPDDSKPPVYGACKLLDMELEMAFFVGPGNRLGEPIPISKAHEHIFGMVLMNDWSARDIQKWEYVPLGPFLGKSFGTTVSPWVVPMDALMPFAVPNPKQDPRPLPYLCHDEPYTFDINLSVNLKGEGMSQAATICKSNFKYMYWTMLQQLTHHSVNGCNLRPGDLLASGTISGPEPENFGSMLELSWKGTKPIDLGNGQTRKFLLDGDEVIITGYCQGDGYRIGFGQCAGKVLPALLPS

Structure (SMILES)	liganded tyrosine site 244 ([1]; 25 μM 2 h, live DM93 cells)	blockade of HHS-475 labeling of PTGR2 (PTGR2)	FAH Y244 site liganded ([1]; live DM93 cells treated with ligand) [%]
O=C(NC1CC1)c1ccc(S(=O)(=O)n2cncn2)cc1 [HHS-0101, 4-((1H-1,2,4-triazol-1-yl)sulfonyl)-N-cyclopropylbenzamide]	HHS0101.Y|HHS0201.Y|HHS0301.Y|HHS0401.Y|HHS0701.Y (tyrosine sites that showed >80% reductions (SR >5) in probe labeling in cells treated with compounds (liganded sites))	not	–
O=C(NCc1ccccc1)c1ccc(S(=O)(=O)n2cncn2)cc1 [HHS-0401, 4-((1H-1,2,4-triazol-1-yl)sulfonyl)-N-benzylbenzamide]	–	–	> 90
O=C(c1ccc(S(=O)(=O)n2cncn2)cc1)N1CCC(c2ccccc2)CC1 [HHS-0701, (4-((1H-1,2,4-triazol-1-yl)sulfonyl)phenyl)(4-phenylpiperidin-1-yl)methanone]	–	could block HHS-475 labeling of PTGR2; also recorded: concentration-dependent blockade of probe labeling	–
